Assay results as given in patent publication US20240279202A1 (NURIX THERAPEUTICS, INC., priority 2021, published 2024).
Structures can show the parent of a compound that is named as a salt.

What was measured:
ITK = biological target: T1, ITK (Homo sapiens, UniProt Q08881); experiment: ITK degradation HiBiT assay; type: cell-based; set-up: expressed in transfected cells; host or cells: Molt4 (ATCC CRL-1552), monoclonal clone 1C10, engineered to carry the HiBiT tag; conditions: 4 hrs; for DC50: C-terminal HiBiT-tagged Molt4 cells; for Dmax: MOLT-4, C-terminal HiBiT-tagged Molt4 cells
T1 sequence (Q08881 1-620): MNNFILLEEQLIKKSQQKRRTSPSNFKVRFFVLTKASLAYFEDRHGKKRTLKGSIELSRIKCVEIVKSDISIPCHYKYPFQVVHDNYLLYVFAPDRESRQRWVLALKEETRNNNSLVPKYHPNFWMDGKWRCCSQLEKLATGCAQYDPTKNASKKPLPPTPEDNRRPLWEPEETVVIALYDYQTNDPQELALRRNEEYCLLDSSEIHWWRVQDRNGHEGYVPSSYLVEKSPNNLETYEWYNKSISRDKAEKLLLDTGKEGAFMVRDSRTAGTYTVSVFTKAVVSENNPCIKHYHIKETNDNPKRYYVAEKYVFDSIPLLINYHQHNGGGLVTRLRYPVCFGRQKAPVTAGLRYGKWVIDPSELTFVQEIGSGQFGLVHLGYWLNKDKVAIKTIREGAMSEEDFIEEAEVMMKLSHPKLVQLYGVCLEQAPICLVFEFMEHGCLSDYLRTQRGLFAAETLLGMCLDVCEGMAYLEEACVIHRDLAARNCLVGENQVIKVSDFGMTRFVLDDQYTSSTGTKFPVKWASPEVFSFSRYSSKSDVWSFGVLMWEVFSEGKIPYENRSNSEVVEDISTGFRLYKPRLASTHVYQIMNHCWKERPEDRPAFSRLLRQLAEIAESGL
Method in brief: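 C-terminal HiBiT-tagged Molt4 cells (clone 1C10) treated 4 h at 32° C with an 11-point, 5-fold compound dilution series (0.5% DMSO). HiBiT lytic detection with LgBiT then luminescence read; % ITK remaining versus concentration fit by four-parameter variable-slope model to give DC50 and Dmax.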

[1] = Mouse PK analysis (blood/plasma concentration after oral administration); type: in vivo; conditions: mice; for AUC(0-t) / Cmax / Tmax / detected in plasma through (FIG. 4B): oral; for AUC(0-t) / Cmax / Tmax: plasma; for detected in plasma through (FIG. 4B): plasma LC/MS/MS
Method in brief: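 Mice were dosed by oral gavage at 90 mg/kg with blood sampled at 1, 2 and 6 h; a second study used oral dosing with plasma taken at 6 or 24 h. Plasma levels were measured by LC/MS/MS (acetonitrile precipitation, internal-standard curve, positive ESI MRM), and Cmax, Tmax and AUClast were derived by noncompartmental analysis.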

Row | SMILES | DC50 (ITK) [nM] | Dmax (ITK) [%] | concentration at 1 h ([1]; mouse, 90 mg/kg PO, blood, timepoint 1 h, read-out: Concentration (μM), mean calculated) [µM] | concentration at 2 h ([1]; mouse, 90 mg/kg PO, blood, timepoint 2 h, read-out: Concentration (μM), mean calculated) [µM] | concentration at 6 h ([1]; mouse, 90 mg/kg PO, blood, timepoint 6 h, read-out: Concentration (μM), mean calculated) [µM] | AUC(0-t) ([1]; mouse) [µM·h] | Cmax ([1]; mouse) [nM] | Tmax ([1]; mouse) [h] | detected in plasma through (FIG. 4B) [1] [h] | Cal. Conc. Total (μM) 2 h ([1]; 2 h) | Cal. Conc. Total (μM) 6 h ([1]; 6 h)
1 | C[C@@H](C(=O)N(C)c1ccc2cc(-c3n[nH]c4c3CCC(C)(C)C4)[nH]c2c1)N1CCN(CC2CCN(c3cccc4c3n(C)c(=O)n4C3CCC(=O)NC3=O)CC2)CC1 (stereo partly drawn) [Compound 3, (2S)—N-(2-(6,6-dimethyl-4,5,6,7-tetrahydro-1H-indazol-3-yl)-1H-indol-6-yl)-2-(4-((1-(1-(2,6-dioxopiperidin-3-yl)-3-methyl-2-oxo-2,3-dihydro-1H-benzo[d]imidazol-4-yl)piperidin-4-yl)methyl)piperazin-1-yl)-N-methylpropanamide] | 0.29 | 76 | 0.228 | 0.702 | 2.71 | 1.99 | 471 | 4 | – | – | –
2 | Cn1c(=O)n(C2CCC(=O)NC2=O)c2cccc(N3CCC(CN4CCC5(CC4)CCN(c4ccc6cc(-c7n[nH]c8c7CCC(C)(C)C8)[nH]c6c4)C5=O)CC3)c21 (stereo not drawn) [Compound 13, 3-(4-(4-((2-(2-(6,6-dimethyl-4,5,6,7-tetrahydro-1H-indazol-3-yl)-1H-indol-6-yl)-1-oxo-2,8-diazaspiro[4.5]decan-8-yl)methyl)piperidin-1-yl)-3-methyl-2-oxo-2,3-dihydro-1H-benzo[d]imidazol-1-yl)piperidine-2,6-dione] | 2.4 | 90 | – | – | – | 0.927 | 251 | 4 | – | – | –
3 | C[C@@]12Cc3[nH]nc(-c4cc5ccc(N6CCC7(CCN(Cc8ccc9c(c8)C(=O)N(C8CCC(=O)NC8=O)C9=O)CC7)C6=O)cc5[nH]4)c3C[C@@H]1C2(F)F (stereo partly drawn) [Compound 15, 5-((2-(2-((4aS,5aR)-5,5-difluoro-5a-methyl-1,4,4a,5,5a,6-hexahydrocyclopropa[f]indazol-3-yl)-1H-indol-6-yl)-1-oxo-2,8-diazaspiro[4.5]decan-8-yl)methyl)-2-(2,6-dioxopiperidin-3-yl)isoindoline-1,3-dione hydrochloride] | 0.35 | 93 | – | – | – | 3.14 | 743 | 4 | – | – | –
4 | Cn1c(=O)n(C2CCC(=O)NC2=O)c2cccc(N3CCC(CN4CCC5(CC4)CCN(c4ccc6cc(-c7n[nH]c8c7C[C@@H]7C(F)(F)[C@]7(C)C8)[nH]c6c4)C5=O)CC3)c21 (stereo partly drawn) [Compound 16, 3-(4-(4-((2-(2-((4aS,5aR)-5,5-difluoro-5a-methyl-1,4,4a,5,5a,6-hexahydrocyclopropa[f]indazol-3-yl)-1H-indol-6-yl)-1-oxo-2,8-diazaspiro[4.5]decan-8-yl)methyl)piperidin-1-yl)-3-methyl-2-oxo-2,3-dihydro-1H-benzo[d]imidazol-1-yl)piperidine-2,6-dione] | 0.23 | 90 | – | – | – | 1.53 | 585 | 6 | 6 | – | –
5 | CC1(C)CCc2c(-c3cc4ccc(N5CCC6(CCN(CC7CCN(c8ccc(C9CCC(=O)NC9=O)cn8)CC7)CC6)C5=O)cc4[nH]3)n[nH]c2C1 (stereo not drawn) [Compound 22, 3-(6-(4-((2-(2-(6,6-dimethyl-4,5,6,7-tetrahydro-1H-indazol-3-yl)-1H-indol-6-yl)-1-oxo-2,8-diazaspiro[4.5]decan-8-yl)methyl)piperidin-1-yl)pyridin-3-yl)piperidine-2,6-dione] | 0.01 | 82 | – | – | – | 7.07 | 2430 | 1 | – | – | –
6 | C[C@@H](C(=O)N(C)c1ccc2cc(-c3n[nH]c4c3CCC(C)(C)C4)[nH]c2c1)N1CCN(C(=O)C2CN(C3CCN(c4ccc5c(c4)C(=O)N(C4CCC(=O)NC4=O)C5=O)CC3)C2)CC1 (stereo partly drawn) [Compound 34, (2S)—N-(2-(6,6-dimethyl-4,5,6,7-tetrahydro-1H-indazol-3-yl)-1H-indol-6-yl)-2-(4-(1-(1-(2-(2,6-dioxopiperidin-3-yl)-1,3-dioxoisoindolin-5-yl)piperidin-4-yl)azetidine-3-carbonyl)piperazin-1-yl)-N-methylpropanamide] | 1.8 | 89 | – | – | – | – | – | – | – | BQL | BQL
7 | C[C@@]12Cc3[nH]nc(C(=O)Nc4cnn(CC5CN(C(=O)C6CN(c7ccc8c(c7)C(=O)N(C7CCC(=O)NC7=O)C8=O)C6)C5)c4)c3C[C@@H]1C2(F)F (stereo partly drawn) [Compound 43, (4aS,5aR)-N-(1-((1-(1-(2-(2,6-dioxopiperidin-3-yl)-1,3-dioxoisoindolin-5-yl)azetidine-3-carbonyl)azetidin-3-yl)methyl)-1H-pyrazol-4-yl)-5,5-difluoro-5a-methyl-1,4,4a,5,5a,6-hexahydrocyclopropa[f]indazole-3-carboxamide] | 2.9 | 93 | – | – | – | 2.34 | 720 | 6 | – | – | –

Second part, the molecule after the results:

Row | DC50 (ITK) [nM] | Dmax (ITK) [%] | concentration at 1 h ([1]; mouse, 90 mg/kg PO, blood, timepoint 1 h, read-out: Concentration (μM), mean calculated) [µM] | concentration at 2 h ([1]; mouse, 90 mg/kg PO, blood, timepoint 2 h, read-out: Concentration (μM), mean calculated) [µM] | concentration at 6 h ([1]; mouse, 90 mg/kg PO, blood, timepoint 6 h, read-out: Concentration (μM), mean calculated) [µM] | AUC(0-t) ([1]; mouse) [µM·h] | Cmax ([1]; mouse) [nM] | Tmax ([1]; mouse) [h] | detected in plasma through (FIG. 4B) [1] [h] | Cal. Conc. Total (μM) 2 h ([1]; 2 h) | Cal. Conc. Total (μM) 6 h ([1]; 6 h) | SMILES
8 | 2.3 | 64 | – | – | – | 0.54 | 127 | 2 | – | – | – | C[C@@H](C(=O)N(C)c1ccc2cc(-c3n[nH]c4c3CCC(C)(C)C4)[nH]c2c1)N1CCN(C[C@@H]2CCN(c3ccc4c(c3)n(C)c(=O)n4C3CCC(=O)NC3=O)C2)CC1 (stereo partly drawn) [Compound 4, (2S)—N-(2-(6,6-dimethyl-4,5,6,7-tetrahydro-1H-indazol-3-yl)-1H-indol-6-yl)-2-(4-(((3S)-1-(1-(2,6-dioxopiperidin-3-yl)-3-methyl-2-oxo-2,3-dihydro-1H-benzo[d]imidazol-5-yl)pyrrolidin-3-yl)methyl)piperazin-1-yl)-N-methylpropanamide]
9 | 1.3 | 74 | – | – | – | 0.7 | 188 | 4 | – | – | – | C[C@@H](C(=O)N(C)c1ccc2cc(-c3n[nH]c4c3CCC(C)(C)C4)[nH]c2c1)N1CCN(C[C@H]2CCN(c3ccc4c(c3)n(C)c(=O)n4C3CCC(=O)NC3=O)C2)CC1 (stereo partly drawn) [Compound 5, (2S)—N-(2-(6,6-dimethyl-4,5,6,7-tetrahydro-1H-indazol-3-yl)-1H-indol-6-yl)-2-(4-(((3R)-1-(1-(2,6-dioxopiperidin-3-yl)-3-methyl-2-oxo-2,3-dihydro-1H-benzo[d]imidazol-5-yl)pyrrolidin-3-yl)methyl)piperazin-1-yl)-N-methylpropanamide]
10 | 0.21 | 85 | – | – | – | 0.154 | 46 | 6 | – | – | – | C[C@@H](C(=O)N(C)c1ccc2cc(-c3n[nH]c4c3C[C@@H]3C(F)(F)[C@]3(C)C4)[nH]c2c1)N1CCN(C[C@H]2CCN(c3ccc4c(c3)C(=O)N(C3CCC(=O)NC3=O)C4=O)C2)CC1 (stereo partly drawn) [Compound 9, (2S)—N-(2-((4aS,5aR)-5,5-difluoro-5a-methyl-1,4,4a,5,5a,6-hexahydrocyclopropa[f]indazol-3-yl)-1H-indol-6-yl)-2-(4-(((3R)-1-(2-(2,6-dioxopiperidin-3-yl)-1,3-dioxoisoindolin-5-yl)pyrrolidin-3-yl)methyl)piperazin-1-yl)-N-methylpropanamide]
11 | 0.29 | 86 | – | – | – | 0.198 | 80.3 | 1 | – | – | – | C[C@@H](C(=O)N(C)c1ccc2cc(-c3n[nH]c4c3CCC(C)(C)C4)[nH]c2c1)N1CCN(C[C@H]2CCN(c3ccc4c(c3)CN(C3CCC(=O)NC3=O)C4=O)C2)CC1 (stereo partly drawn) [Compound 12, (2S)—N-(2-(6,6-dimethyl-4,5,6,7-tetrahydro-1H-indazol-3-yl)-1H-indol-6-yl)-2-(4-(((3R)-1-(2-(2,6-dioxopiperidin-3-yl)-1-oxoisoindolin-5-yl)pyrrolidin-3-yl)methyl)piperazin-1-yl)-N-methylpropanamide]
12 | < 0.001 | – | – | – | – | – | – | – | 24 | – | – | C[C@@H](C(=O)N(C)c1ccc2cc(-c3n[nH]c4c3C[C@@H]3C(F)(F)[C@]3(C)C4)[nH]c2c1)N1CCN(CC2CCN(c3ccc(C4CCC(=O)NC4=O)cn3)CC2)CC1 (stereo partly drawn) [Compound 17, (2S)—N-(2-((4aS,5aR)-5,5-difluoro-5a-methyl-1,4,4a,5,5a,6-hexahydrocyclopropa[f]indazol-3-yl)-1H-indol-6-yl)-2-(4-((1-(5-(2,6-dioxopiperidin-3-yl)pyridin-2-yl)piperidin-4-yl)methyl)piperazin-1-yl)-N-methylpropanamide]
